Peptide text beside a SMILES is read from it.
SMILES	logP
CC(C)CO	0.76
COc1c(O)cc2c(c1OC)-c1ccc(SC)c(=O)cc1C(NC(=O)C(F)(F)F)CC2 (centres undefined)	2.61
FC(Cl)Cl	1.55
O=[N+]([O-])c1ccccn1	0.48
C#CCCCC	2.73
CCOCCOC(=O)C(C#N)=C(CC)Nc1ccc(N)cc1	2.27
C#C[C@]1(O)CC[C@H]2[C@@H]3CCC4=CC(=O)CC[C@]4(C)[C@H]3CC[C@@]21C	3.11
NC(=O)c1ccc(F)cc1	0.91
CC(C)OC(=O)Nc1ccccc1	2.6
CC(=O)OCCBr	1.11
CCOC(=O)CN(C(=O)CCl)c1c(CC)cccc1CC	3.6
CCCCOC(=O)c1ccc(O)cc1	3.57
O=C1C=CC(=O)N1	-0.29
Cc1cnnc2ccc(Cl)cc12	1.96
CCC(C)n1c(=O)[nH]c(C)c(Br)c1=O (centres undefined)	2.11
Cn1cc(C(=O)O)c2ccccc21	2
c1ccc2c(c1)ccc1ccccc12	4.46
N#Cc1cccc(O)c1	1.7
O=C(CN1CCCCC1)Nc1ccccc1[N+](=O)[O-]	2.75
C[C@]12CC[C@H](O)C[C@H]1CC[C@@H]1[C@@H]2C[C@@H](O)[C@]2(C)[C@@H](C3=CC(=O)OC3)CC[C@]12O	1.1
Cc1cc(C)cc(O)c1	2.35
O=[N+]([O-])c1ccc(Cl)c(Cl)c1Cl	3.61
CN(C)C(N(C)C)=S(I)c1ccccc1 (centres undefined)	-0.68
CCCCOCC	2.03
CCOc1cc(C(=O)NN)ccn1	0.48

SMILES	logP
CC(=O)Oc1ccc(C(C)=O)cc1	1.29
O=c1cccc[nH]1	-0.58
NS(=O)(=O)c1ccc(S(N)(=O)=O)cc1	-0.96
CCCCCCOC(=O)n1cnc(C)c1CSCCNC(=NC#N)NC	3.1
COc1cc2c(c(OC)c1OC)-c1ccc(=O)c(OC)cc1C(NC(C)=O)CC2 (centres undefined)	1
C=CCOc1cc(N)ccc1C(=O)O	1.25
CCCOc1cccc(C=C(C(=O)OCC)C(=O)OCC)c1	4
O=c1cccccc1O	0.53
FC(F)Oc1ccccc1	2.44
CCC1(C2=CC3CCC(C2)C3)C(=O)NC(=O)NC1=O (centres undefined)	2.53
O=C(O)Cn1cccc1	0.7
S=C=NCc1ccccc1	3.16
C[C@H](N)[C@H](O)c1cccc(O)c1	-0.27
Oc1cccc2cccnc12	2.02
CCc1ccccc1S(I)=C(N(C)C)N(C)C (centres undefined)	0.32
O=C1C=CCO1	-0.6
CC(=O)OCC1=C(C(=O)O)N2C(=O)[C@@H](NC(=O)Cc3cccs3)[C@H]2SC1	-0.41
CC(=O)c1ccc(C(=O)OCCN(C)C)cc1	1.57
C=CCCC(C)=O	1.02
Cc1ccccc1C(O)c1ccccc1 (centres undefined)	3.06
O=C(O)COc1cccc(I)c1	2.44
NN1CCCCC1	-0.28
CCOC(=O)C(F)F	0.87
NNC(=O)c1cccc(Cl)c1	1.18
C=C(CC(=O)c1ccc(-c2ccccc2Cl)cc1)C(=O)O	3.32

SMILES	logP
COc1ccc(C(=O)OCCN(C)C)cc1	2.21
COc1ccc(O)c2nccc(C)c12	2.75
OCC(F)(F)F	0.41
OCC1OC(Oc2ccc(Cl)cc2)C(O)C(O)C1O (centres undefined)	0.26
CCc1ccccc1OCC(=O)O	2.53
CC(=O)c1ccccc1OCC(=O)O	1.25
Cc1ccccc1OCC(=O)O	1.98
FC(F)(F)Cl	1.65
CNC(=O)c1ccco1	0.23
NC(=O)C=Cc1ccccc1	1.43
COc1ccccc1OC	1.6
ONc1ccccc1	0.79
NC(=O)CCCCc1ccccn1	0.38
Cn1ccccc1=O	-0.23
CN(C)c1cccnn1	0.29
CC(CO)NC1=C(N2CC2)C(=O)C(NC(C)CO)=C(N2CC2)C1=O (centres undefined)	-0.37
O=Nc1ccc2ccccc2c1O	2.46
CC(C)C(O)C(C(=O)O)c1ccc(-c2ccccc2)cc1 (centres undefined)	3.84
CCC1(c2ccccc2)C(=O)NC(=O)N(C)C1=O (centres undefined)	1.84
CC(C)NC(=O)NO	0.2
CC(C)NNC(=O)COc1ccccc1Cl	1.82
CC(C)COC(=O)c1ccccc1C(=O)OCC(C)C	4.11
CP(C)c1ccccc1	2.57
Nc1ccc(/N=N/c2ccccc2)cc1	3.41
CCCC1(c2ccncc2)CCC(=O)NC1=O (centres undefined)	1.13

SMILES	logP
CC(C)NC(=O)C=Cc1ccc([N+](=O)[O-])o1	1.34
CCOC(=O)CON=Cc1ccc(OCCOC(=O)CC)c(OC)c1	2.39
Fc1cc(F)cc(Cn2cc[nH]c2=S)c1	1.98
CNC(=S)NCCCCc1cnc[nH]1	0.39
CC(=O)Nc1ccc(N(C)C)cc1	1
CN(C)C(N(C)C)=S(I)c1cccc(Cl)c1 (centres undefined)	-0.17
O=C1C=C(N2CCCC2)C(=O)c2ccccc21	2.89
N#CCCOc1ccccc1	1.61
CCCCCCC(NC(C)=O)C(=O)OC (centres undefined)	1.7
Cc1ccc2cccnc2c1	2.47
COc1ccccc1Oc1ccccc1	2.92
CC(C)(C)CO	1.31
Nc1cccc2cc3ccccc3nc12	3.26
O=NN1CCOCC1	-0.44
S=C1CCCN1	-0.05
Cc1cccc2cc[nH]c12	2.56
Nc1ccc(C(=O)Oc2ccccc2Cl)c(O)c1	3.72
CC(C)(C)NC[C@H](O)COc1ccccc1C1CCCC1	4.15
O=S(=O)(Nc1ccc(Cl)cc1)C(F)F	2.84
N#CCc1cccc(Oc2ccccc2)c1	3.03
CC(C)NNC(=O)COc1cccc(Cl)c1	1.91
Cc1[nH]cnc1CSCCNc1[nH]ccc(=O)c1[N+](=O)[O-]	-0.2
Clc1ccccc1-c1c(Cl)cccc1Cl	5.48
CN(C(=S)c1ccccc1)c1ccccc1	3.12
N=C(N)NCCCCc1ccccc1	1.59

SMILES	logP
FC(F)(F)c1nc2ccc(Cl)cc2[nH]1	3.39
CC(C(=O)O)c1ccc(-c2ccccc2)c(F)c1 (centres undefined)	4.16
CCC(=O)C(CS(=O)(=O)c1ccccc1)c1ccc(OC)cc1 (centres undefined)	2.18
COc1cc2c(c(OC)c1OC)-c1ccc(O)c(=O)cc1C(NC(C)=O)CC2 (centres undefined)	1.2
CC(=O)NC1=CC(=O)c2ccccc2C1=O	1.29
CCCCOc1c(OC)cc(CCN)cc1OC	2.32
CC(O)CNCC(C)O (centres undefined)	-0.82
CC(=O)OCc1ccc(Cl)cc1	2.59
CN1C(CCl)Nc2cc(Cl)c(S(N)(=O)=O)cc2S1(=O)=O (centres undefined)	1.42
Ic1nc(I)c(I)[nH]1	2.78
CC(=O)Nc1ccccc1	1.16
CCc1cc([N+](=O)[O-])cc([N+](=O)[O-])c1O	2.67
CCOc1c(NS(=O)(=O)c2ccc(N)cc2)ncnc1OC	1.03
CCCCCBr	3.37
Oc1ccc(O)c(Cl)c1	1.4
CC(=O)N[C@@H](C)C(=O)N[C@@H](Cc1ccc(O)cc1)C(=O)N[C@@H](CC(C)C)C(N)=O (Ac-Ala-Tyr-Leu-NH2)	-0.04
CCCCC(N)C(=O)O (centres undefined)	-1.53
Oc1cccc(C(F)(F)F)c1	2.95
CCCCCOCc1cccc(NC(=O)OCCN2CCCCC2)c1	4.2
O=c1ccoc2cc(O)ccc12	1.44
NC(=O)Cc1cccnc1	-0.71
COc1cccc(OC)c1C(=O)N[C@@H]1C(=O)N2[C@@H]1SC(C)(C)[C@@H]2C(=O)O	1.22
C[C@]12CCC(=O)C=C1CC[C@@H]1[C@@H]2C(=O)C[C@@]2(C)[C@H]1CC[C@]2(O)C(=O)CO	1.47
OCCN1CCN(CCCN2c3ccccc3Sc3ccc(C(F)(F)F)cc32)CC1	4.36
CCCC(C)O (centres undefined)	1.19

SMILES	logP
FCCCc1ccccc1	2.95
CCc1ccc2c(c1)C(=O)c1ccc(NC(C)=O)cc1S2(=O)=O	3.44
O=C1NCCN1c1ncc([N+](=O)[O-])s1	0.95
Cc1ccc(C)c(C)c1	3.63
CN(C)c1nc2c3cccnc3ccc2n1C	2.28
Cc1ccccc1C	3.12
CC=Cc1c(OC)cc(Cc2cnc(N)nc2N)cc1OCC	2.65
Sc1ccccn1	-0.13
CNCC(=O)O	-2.78
CNC(=S)NC	-0.24
O=C(Nc1ccccc1)c1ccccc1O	3.27
C=C(C)CC1(CC)C(=O)NC(=S)NC1=O	2.19
O=C(Nc1ccccc1)N(c1ccccc1)c1ccccc1	3.28
Brc1ccncc1	1.54
COc1cccc(OCC(=O)NNC(C)C)c1	1.33
Oc1c(Cl)cc(Cl)c(Cl)c1Cl	4.45
Fc1ccc(CCl)cc1	2.73
NS(=O)(=O)c1ccc(C(=O)O)cc1	0.5
C1CCOC1	0.46
O=c1ccn(C2OC(CO)C(O)C2O)c(=O)[nH]1 (centres undefined)	-1.98
Oc1ccc(Cl)c(O)c1	1.8
O=C(O)CS	0.09
c1cnn(C23CC4CC(CC(C4)C2)C3)c1	3.05
CCOC(=O)C(=Cc1cccc(OCC)c1)C(C)=O	2.71
Cc1ccc(S(I)=C(N(C)C)N(C)C)cc1 (centres undefined)	-0.1

SMILES	logP
CC(=O)c1ccc[nH]1	0.93
CCCCCNC(=O)c1ccc(S(N)(=O)=O)cc1	1.51
CCN(CC)CC	1.45
CSc1cccc(NC(N)=O)c1	1.57
CC(=O)C(=Cc1ccc(C)cc1)C(C)=O	2.14
CF	0.51
CC(=O)CCCc1ccccc1	2.42
COc1ccc(-c2nc3cnccc3o2)c(OC)c1	2.42
Clc1cc(Cl)c(Cl)c(Cl)c1Cl	5.17
O=[N+]([O-])c1cccc(O)c1	2
CC(C)C(Br)C(=O)NC(N)=O (centres undefined)	1.14
COC(=O)c1ccc(OC)cc1	2.27
CC1Nc2cc(Cl)c(S(N)(=O)=O)cc2S(=O)(=O)N1 (centres undefined)	0.08
CC(C)NC(C)C	1.4
O=C(O)C1CCCCC1	1.96
O=C(NCC(O)CO)c1c(I)c(C(=O)NCC(O)CO)c(I)c(N(CCO)C(=O)CO)c1I (centres undefined)	-2.98
O=C(Cn1c(=O)sc2ccc(Cl)cc21)N1CCN(CCO)CC1	1.04
COC(=O)c1cc(Cl)ccc1N	3.3
COc1cc(CCN)cc(OC)c1OC	0.78

Source: the OPERA property sets (Mansouri et al. 2018)
